Laboratory results taken from patent US20260138976A1 (Hoffmann-La Roche Inc., priority 2022, published 2026).

What was measured:
[1] = molecular target: T1, DGKα (hDGKalpha(1-735)-N-His) (Homo sapiens, UniProt P23743); assay: In vitro DGK inhibition assay, DGKalpha ADP Glo (in house); assay type: biochemical; settings: 4 nM DGKα, 25 μM ATP, 125 uM DLG in liposomes, 1 hour reaction
T1 construct: hDGKalpha(1-735)-N-His; His (N); made in house; host or cells: Sf21 insect cells (baculovirus)
In short: (§1)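 ADP-Glo luminescence measured ADP formed over 1 h by Sf21-expressed full-length human enzymes: DGKα at 4 nM with 25 µM ATP, DGKζ at 2 nM with 50 µM ATP, both on 125 µM DLG in PS/PC liposomes. Dose–response used 11 threefold dilutions at 2% final DMSO.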

[2] = molecular target: T2, DGKζ (hDGKzeta(1-928)-N-His) (Homo sapiens, UniProt Q13574); assay: In vitro DGK inhibition assay, DGKzeta ADP Glo (in house); assay type: biochemical; settings: 2 nM DGKζ, 50 μM ATP, 125 uM DLG in liposomes, 1 hour reaction
T2 construct: hDGKzeta(1-928)-N-His; His (N); made in house; host or cells: Sf21 insect cells (baculovirus)
In short: as §1

primary human T-cells = assay: Proliferation assay (5 days, CellTiter-Glo, CD3-stimulated T-cells); assay type: cell-based; settings: for Emax proliferation (% activation): CD3 condition, normalised to DMSO (neutral) and 20 μM reference compound A1 = 100%; for EC50: Homo sapiens, T-cell, 120 h, CD3-stimulated primary human T-cells, 5 days, CellTiter-Glo, fitted sigmoidal curve, read-out: Tcell Proliferation CD3 EC50
In short: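 Proliferation read-out: ATP luminescence (CellTiter-Glo 2.0) at day 5 in expanded primary human T-cells on CD3 antibody-coated plates, with PBS-only plates as a counter screen. Compounds in 5–6 pt series (factor 3.333, top 20 or 10 μM final). Values are normalized to DMSO (neutral) and 20 μM reference A1 (100%), from sigmoidal fits.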

T1 sequence (P23743 whole entry): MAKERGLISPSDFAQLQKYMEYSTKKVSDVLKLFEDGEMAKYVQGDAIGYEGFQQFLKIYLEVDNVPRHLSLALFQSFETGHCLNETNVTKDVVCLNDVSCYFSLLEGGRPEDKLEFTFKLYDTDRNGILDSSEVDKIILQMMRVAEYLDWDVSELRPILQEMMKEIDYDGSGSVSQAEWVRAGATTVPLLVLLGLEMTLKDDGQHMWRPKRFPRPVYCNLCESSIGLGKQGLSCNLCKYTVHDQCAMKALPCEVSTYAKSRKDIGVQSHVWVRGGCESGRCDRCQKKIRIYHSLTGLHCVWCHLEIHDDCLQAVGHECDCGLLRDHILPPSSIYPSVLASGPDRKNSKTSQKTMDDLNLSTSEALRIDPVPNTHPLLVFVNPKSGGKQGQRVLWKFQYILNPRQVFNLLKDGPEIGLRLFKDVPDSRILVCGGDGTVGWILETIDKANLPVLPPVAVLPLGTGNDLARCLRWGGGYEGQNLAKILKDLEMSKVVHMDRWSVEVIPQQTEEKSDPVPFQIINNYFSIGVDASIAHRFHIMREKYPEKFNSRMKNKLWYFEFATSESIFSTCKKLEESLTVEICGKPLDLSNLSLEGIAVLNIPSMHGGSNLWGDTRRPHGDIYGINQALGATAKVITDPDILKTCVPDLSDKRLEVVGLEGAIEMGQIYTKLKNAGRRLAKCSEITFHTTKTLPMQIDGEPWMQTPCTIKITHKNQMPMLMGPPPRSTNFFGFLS
T2 sequence (Q13574 whole entry): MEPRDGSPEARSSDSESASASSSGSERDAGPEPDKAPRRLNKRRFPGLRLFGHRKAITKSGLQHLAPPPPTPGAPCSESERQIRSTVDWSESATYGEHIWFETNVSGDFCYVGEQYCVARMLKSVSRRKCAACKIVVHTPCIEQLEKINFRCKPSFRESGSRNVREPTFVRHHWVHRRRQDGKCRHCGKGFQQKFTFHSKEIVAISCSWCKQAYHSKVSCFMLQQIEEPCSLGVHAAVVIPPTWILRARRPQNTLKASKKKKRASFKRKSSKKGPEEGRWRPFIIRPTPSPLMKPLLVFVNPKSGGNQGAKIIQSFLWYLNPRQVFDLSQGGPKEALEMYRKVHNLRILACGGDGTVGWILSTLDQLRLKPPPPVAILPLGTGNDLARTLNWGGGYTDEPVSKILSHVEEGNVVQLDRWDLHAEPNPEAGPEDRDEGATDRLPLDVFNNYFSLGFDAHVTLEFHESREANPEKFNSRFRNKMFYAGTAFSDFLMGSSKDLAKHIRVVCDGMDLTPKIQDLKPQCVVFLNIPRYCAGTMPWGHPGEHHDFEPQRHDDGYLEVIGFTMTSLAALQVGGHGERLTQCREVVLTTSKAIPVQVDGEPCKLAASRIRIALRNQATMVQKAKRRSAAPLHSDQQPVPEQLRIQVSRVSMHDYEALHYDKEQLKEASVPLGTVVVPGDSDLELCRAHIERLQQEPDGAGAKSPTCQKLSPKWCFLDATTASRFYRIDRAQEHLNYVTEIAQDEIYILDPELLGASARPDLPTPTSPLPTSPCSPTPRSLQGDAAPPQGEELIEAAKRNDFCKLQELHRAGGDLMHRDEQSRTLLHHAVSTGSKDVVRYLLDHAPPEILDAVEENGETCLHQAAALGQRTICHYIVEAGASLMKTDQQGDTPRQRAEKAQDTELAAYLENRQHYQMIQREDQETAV

Compound | IC50 [1] | IC50 [2] | Emax proliferation (% activation) (primary human T-cells) | EC50 (primary human T-cells)
CC(C)(C)c1nnc(-c2ccc(CN3C(=O)[C@@H](N)CS(=O)(=O)c4ccc(-c5nnc(C(C)(C)C)o5)cc43)cc2)o1 [Example 19, (3R)-3-amino-7-(5-tert-butyl-1,3,4-oxadiazol-2-yl)-5-[[4-(5-tert-butyl-1,3,4-oxadiazol-2-yl)phenyl]methyl]-1,1-dioxo-2,3-dihydro-1λ^6,5-benzothiazepin-4-one] | 18200 nM | 783 nM | 100 % activation | 3610 nM
C[C@@](N)(c1nnc(-c2ccc3c(c2)N(Cc2ccc(-c4ccc(OC(F)(F)F)cn4)cc2)C(=O)[C@@H](N)CS3(=O)=O)o1)C(F)(F)F [Example 153, (3R)-3-amino-7-[5-[(1R)-1-amino-2,2,2-trifluoro-1-methyl-ethyl]-1,3,4-oxadiazol-2-yl]-1,1-dioxo-5-[[4-[5-(trifluoromethoxy)-2-pyridyl]phenyl]methyl]-2,3-dihydro-1λ^6,5-benzothiazepin-4-one] | 2050 nM | 2250 nM | 178 % activation | 130 nM
N[C@H]1CS(=O)(=O)c2ccc(-c3nnc(C4(N)CCCCC4)o3)cc2N(Cc2ccc(-c3noc(C(F)(F)F)n3)cc2)C1=O [Example 39, (3R)-3-amino-7-[5-(1-aminocyclohexyl)-1,3,4-oxadiazol-2-yl]-1,1-dioxo-5-[[4-[5-(trifluoromethyl)-1,2,4-oxadiazol-3-yl]phenyl]methyl]-2,3-dihydro-1λ^6,5-benzothiazepin-4-one] | 19000 nM | 1780 nM | 91 % activation | 181 nM
N[C@H]1CS(=O)(=O)c2ccc(-c3nnc(C4(C5CC5)CCCO4)o3)cc2N(Cc2ccc(-c3noc(C(F)(F)F)n3)cc2)C1=O (stereo partly drawn) [Example 36, (3R)-3-amino-7-[5-(2-cyclopropyl-tetrahydrofuran-2-yl)-1,3,4-oxadiazol-2-yl]-1,1-dioxo-5-[[4-[5-(trifluoromethyl)-1,2,4-oxadiazol-3-yl]phenyl]methyl]-2,3-dihydro-1λ^6,5-benzothiazepin-4-one] | 2600 nM | 956 nM | 108 % activation | 91.7 nM
CC(F)(F)c1ccc(-c2ccc(CN3C(=O)[C@@H](N)CS(=O)(=O)c4ccc(-c5nnc(C(C)(C)C#N)o5)cc43)cc2)nc1 [Example 109, 2-[5-[(3R)-3-amino-5-[[4-[5-(1,1-difluoroethyl)-2-pyridyl]phenyl]methyl]-1,1,4-trioxo-2,3-dihydro-1λ^6,5-benzothiazepin-7-yl]-1,3,4-oxadiazol-2-yl]-2-methyl-propanenitrile] | 2110 nM | 864 nM | 129 % activation | 445 nM
COc1ccc(-c2ccc(CN3C(=O)[C@@H](N)CS(=O)(=O)c4cc(F)c(-c5noc(C6(N)COC6)n5)cc43)cc2)cc1 [Example 8, (3R)-3-amino-7-[5-(3-aminooxetan-3-yl)-1,2,4-oxadiazol-3-yl]-8-fluoro-5-[[4-(4-methoxyphenyl)phenyl]methyl]-1,1-dioxo-2,3-dihydro-1λ^6,5-benzothiazepin-4-one] | 7030 nM | 137 nM | 143 % activation | 3110 nM
CC(C)(C#N)c1nnc(-c2ccc3c(c2)N(Cc2ccc(-c4cnc(OC(F)(F)F)cn4)cc2)C(=O)[C@@H](N)CS3(=O)=O)o1 [Example 112] | 1750 nM | 473 nM | 116 % activation | 292 nM
N#CC1(c2nc(-c3cc4c(cc3F)S(=O)(=O)C[C@H](N)C(=O)N4Cc3ccc(-c4ccc(C(F)(F)F)cn4)cc3)no2)CC1 [Example 17] | 3210 nM | 464 nM | 167 % activation | 50.1 nM
CC(C)(C#N)c1nnc(-c2ccc3c(c2)N(Cc2ccc(-c4cc(OC(F)F)ccn4)cc2)C(=O)[C@@H](N)CS3(=O)=O)o1 [Example 110, 2-[5-[(3R)-3-amino-5-[[4-[4-(difluoromethoxy)-2-pyridyl]phenyl]methyl]-1,1,4-trioxo-2,3-dihydro-1λ^6,5-benzothiazepin-7-yl]-1,3,4-oxadiazol-2-yl]-2-methyl-propanenitrile] | > 60000 nM | 507 nM | 85 % activation | 5780 nM
CC(C)(C#N)c1nnc(-c2ccc3c(c2)N(Cc2ccc(-c4cc(C(F)(F)F)ccn4)cc2)C(=O)[C@@H](N)CS3(=O)=O)o1 [Example 116, 2-[5-[(3R)-3-amino-1,1,4-trioxo-5-[[4-[4-(trifluoromethyl)-2-pyridyl]phenyl]methyl]-2,3-dihydro-1λ^6,5-benzothiazepin-7-yl]-1,3,4-oxadiazol-2-yl]-2-methyl-propanenitrile] | > 62500 nM | 918 nM | 97 % activation | 439 nM
N#CC1(c2nnc(-c3ccc4c(c3)N(Cc3ccc(-c5ccc(C(F)(F)F)cn5)cc3)C(=O)[C@@H](N)CS4(=O)=O)o2)CC1 [Example 62, 1-[5-[(3R)-3-amino-1,1,4-trioxo-5-[[4-[5-(trifluoromethyl)-2-pyridyl]phenyl]methyl]-2,3-dihydro-1λ^6,5-benzothiazepin-7-yl]-1,3,4-oxadiazol-2-yl]cyclopropane-carbonitrile] | > 19800 nM | 1500 nM | 101 % activation | 1570 nM
N[C@H]1CS(=O)(=O)c2ccc(-c3nnc(N4CCC(F)(F)CC4)o3)cc2N(Cc2ccc(-c3ccc(C(F)(F)F)cn3)cc2)C1=O [Example 160] | 5180 nM | 922 nM | 150 % activation | 1300 nM
CC(C)(C#N)c1nnc(-c2ccc3c(c2)N(Cc2ccc(-c4ccc(OC(F)F)cn4)cc2)C(=O)[C@@H](N)CS3(=O)=O)o1 [Example 108, 2-[5-[(3R)-3-amino-5-[[4-[5-(difluoromethoxy)-2-pyridyl]phenyl]methyl]-1,1,4-trioxo-2,3-dihydro-1λ^6,5-benzothiazepin-7-yl]-1,3,4-oxadiazol-2-yl]-2-methyl-propanenitrile] | 1390 nM | 939 nM | 204 % activation | 820 nM
N[C@H]1CS(=O)(=O)c2ccc(-c3nnc(C(F)C(F)(F)F)o3)cc2N(Cc2ccc(-c3noc(C4CC4)n3)cc2)C1=O (stereo partly drawn) [Example 168, (3R)-3-amino-5-[[4-(5-cyclopropyl-1,2,4-oxadiazol-3-yl)phenyl]methyl]-1,1-dioxo-7-[5-(1,2,2,2-tetrafluoroethyl)-1,3,4-oxadiazol-2-yl]-2,3-dihydro-1λ^6,5-benzothiazepin-4-one] | > 62500 nM | 1600 nM | 62 % activation | 2620 nM
CC(C)(C#N)c1nnc(-c2ccc3c(c2)N(Cc2ccc(-c4ccc(OC(F)(F)F)cc4)nc2)C(=O)[C@@H](N)CS3(=O)=O)o1 [Example 119, 2-[5-[(3R)-3-amino-1,1,4-trioxo-5-[[6-[4-(trifluoromethoxy)phenyl]-3-pyridyl]methyl]-2,3-dihydro-1λ^6,5-benzothiazepin-7-yl]-1,3,4-oxadiazol-2-yl]-2-methyl-propanenitrile] | 3450 nM | 1630 nM | 119 % activation | 809 nM
CC(C)(C#N)c1nnc(-c2ccc3c(c2)N(Cc2ccc(-c4cnn(C(F)(F)F)c4)cc2)C(=O)[C@@H](N)CS3(=O)=O)o1 [Example 115, 2-[5-[(3R)-3-amino-1,1,4-trioxo-5-[[4-[1-(trifluoromethyl)pyrazol-4-yl]phenyl]methyl]-2,3-dihydro-1λ^6,5-benzothiazepin-7-yl]-1,3,4-oxadiazol-2-yl]-2-methyl-propanenitrile] | 585 nM | 803 nM | 140 % activation | 278 nM
N[C@H]1CS(=O)(=O)c2cc(F)c(-c3noc(N4CCOC(F)(F)C4)n3)cc2N(Cc2ccc(-c3noc(C(F)(F)F)n3)nc2)C1=O [Example 12, (3R)-3-amino-7-[5-(2,2-difluoromorpholin-4-yl)-1,2,4-oxadiazol-3-yl]-8-fluoro-1,1-dioxo-5-[[6-[5-(trifluoromethyl)-1,2,4-oxadiazol-3-yl]-3-pyridyl]methyl]-2,3-dihydro-1λ^6,5-benzothiazepin-4-one] | 3040 nM | 169 nM | 125 % activation | 3880 nM
COc1ccc(-c2ccc(CN3C(=O)[C@@H](N)CS(=O)(=O)c4ccc(-c5nnc(C(C)(C)C#N)o5)cc43)cc2)nc1 [Example 125] | 3520 nM | 930 nM | 127 % activation | 2310 nM
